# Columns and labels:
# [1] = test system: drug-induced skin necrosis; assay: Protection by DHM3 against drug-induced skin necrosis in the swine model; format: in vivo; settings: for Percent Reduction of Maximal Ulcer Size: DHM3 15 min later
# Experimental: DOX HCl (2.0 mg/ml) was administered intradermally (i.d.) with a 25 gauge needle inserted approximately 4 to 5 mm into the skin. Following the injection of 0.5, 0.75 or 1.0 ml (1.0, 1.5, or 2.0 mg, respectively) DOX solution, the syringe was removed from the hub leaving the needle in place. After the indicated time interval, 1.0 ml (10 mg) DHM3 was injected through the same needle and the needle was then removed. Control sites received 1.0 ml sterile water instead of DHM3. The injection sites were along the mid-lateral aspect of each side of the swine and were 4-5 cm apart (6-8 injection sites per side). One animal was used for a dose experiment where DOX, 0.5 ml/site was injected along one side and 1.0 ml/site was injected along the contralateral side. Fifteen minutes later, DHM3 or water was injected into alternating sites as described above. A second animal received DOX, 0.75 ml/site along both sides. DHM3 or water was injected into alternating sites at times varying from 5 to 120 minutes following DOX administration.
# In a separate study, equimolar amounts of several compounds used in experimental or clinical cancer chemotherapy were injected into pig skin using the same method described above. Paired injection sites were treated 15 minutes later with either H2 O or DHM3 in duplicate.
# All lesions were measured by a single observer with metric calipers three times weekly for two weeks, followed by weekly measurements thereafter. The areas of skin ulceration and induration were estimated by the product of the cross perpendicular diameters. The total toxicity of DOX-induced skin ulceration was determined by calculating the area under the ulceration-time curve (AUC) in mm^2 -days.
# [2] = Stability of DHM3 in water upon exposure to air; format: physicochemical
# Experimental: Oxazinone 2 (6.0 g, 0.019 mol) was dissolved in 500 ml of 2-propanol (Fisher). The solution was irradiated with a 450 W mercury immersion lamp through a Pyrex filter. Throughout the reacion the photochemical apparatus was immersed in a bath kept at 0° C. and nitrogen was bubbled through the solution. The disappearance of the oxazinone chromophore was monitored by UV spectroscopy. After 24 h, when the UV maximum at 323 nm had disappeared, the irradiation was stopped, and the solvent quickly rotary evaporated without delay at ambient temperature (20°-28° C.) first at 15-20 Torr, then at 1 Torr. The residue was dissolved in 70 ml of chloroform and the solution was stored in a freezer at about -18° C. for 6 days. The resulting pricipitate was collected by suction filtration, washed thoroughly with cold chloroform (≈10° C.) and dried under vaccuum to give 2.9 g (48%) of a white powder, mp 121°-124° C. An additional crop of crystals (0.64 g) was obtained from the mother liquors after two more weeks in the freezer. […] Minor peaks in the spectrum were present in areas compatible with the presence of other stereoisomers. Infrared and analytical data are as follows: IR (KBr) 3160, 2900, 1715, 1455, 1285, 1220, 1040, 770, 715 cm^-1; anal. calcd. for C14 H24 N2 O6 : C, 53.15; H, 7.65; N, 8.85. Found: C, 53.00; H, 7.70; N, 8.84. […]
# [3] = Kinetics of reaction of DHM3 with daunorubicin in methanol solvent
# Experimental: Oxomorpholinyl dimer DHM3 (5.8 mg) was dissolved in 100 ml of oxygen-free dichloromethane by stirring under nitrogen for 1 h. A portion of the solution (1.0 ml, 1.8×10^-4 mmol) of DHM3 was transferred via syringe to the spectrophotometric compartment of a two-compartment Pyrex cell with attachment for connection to a vacuum line with an Ultra Torr Union. The solvent was then evaporated with a stream of nitrogen. Daunorubicin hydrochloride (8.83 mg) was dissolved in 100 ml of a methanolic solution of 18.9 mg of tris(hydroxymethyl)aminomethane (Tris) and 24.7 mg of Tris hydrochloride. A portion of this solution (2.5 ml, 3.9×10^-4 mmol of 6) was introduced via syringe into the second compartment of the cell. The methanol solution was freeze (liquid nitrogen)-pump (2×10^-6 Torr)-thaw degassed through four cycles, sealed, and placed in a thermostatted cell holder at 25.1±0.1° C. for about 15 min. prior to mixing the solution with DHM3. After mixing, the average absorbance at 618 and 620 nm was recorded versus time. A non-linear least-squares treatment of the data as mentioned below gave a first order rate constant for bond homolysis of DHM3 equal to 1.8×10^-3 sec^-1.
# The oxomorpholinyl dimer DHM3 causes reductive elimination of the sugar moiety, daunosamine, of daunorubicin (6) in much the same way as the structurally related bi(3,5,5-trimethyl-2-oxomorpholin-3-yl) (9). (See Schematic FIG. 2). […] The kinetics were established by regressional, non-linear least squares fitting of the absorbance versus time data to equation 1,
# -k1))(e^-k.sbsp.1^t -e^-k.sbsp.2^t)
# where At is the absorbance of 7 at time t, ε7 is the extinction coefficient of 7 at 618-620 nm, [DHM3]o is the concentration of DHM-3 at time zero, k1 is the rate constant for bond homolysis of DHM3 and k2 is the rate constant for tautomerization of 7 to 8. The value obtained for k1, 1.8×10^-3 sec^-1, was approximately half that obtained for bond homolysis of 9. […]
compound,measurement,setting,value
"CC1(CO)COC(=O)C(C)(C2(C)NC(C)(CO)COC2=O)N1 (stereo not drawn) [DHM3, bi(3,5-dimethyl-5-hydroxymethyl-2-oxomorpholin-3-yl)]",Percent Reduction of Maximal Ulcer Size,"[1]; against 4'-Epidoxorubicin, Exper. 4",51%
same,Percent Reduction of Maximal Ulcer Size,"[1]; against 4-Demethoxydaunorubicin, Exper. 4",79%
same,Percent Reduction of Maximal Ulcer Size,"[1]; against 5-Iminodaunorubicin, Exper. 3",53%
same,Percent Reduction of Maximal Ulcer Size,"[1]; against Aclarubicin, Exper. 4",46%
same,Percent Reduction of Maximal Ulcer Size,"[1]; against Adriamycin, Exper. 1",77%
same,Percent Reduction of Maximal Ulcer Size,"[1]; against Adriamycin, Exper. 2",40%
same,Percent Reduction of Maximal Ulcer Size,"[1]; against Daunorubicin, Exper. 2",39%
same,Percent Reduction of Maximal Ulcer Size,"[1]; against Menogaril, Exper. 4",61%
same,Percent Reduction of Maximal Ulcer Size,"[1]; against Mitomycin C, Exper. 3",58%
same,protection against drug-induced skin necrosis,[1]; against Mitoxantrone,no protection observed
same,protection against drug-induced skin necrosis,[1]; against Vinblastine,no protection observed
same,protection against drug-induced skin necrosis,[1]; against Vincristine,no protection observed
same,protection against tissue necrosis,[1]; several anthracycline analogs and mitomycin C,effective in all cases
same,protection against skin injury,[1]; vinca alkaloid and mitoxantrone,did not protect
same,stability to air in water,[2],"quickly gives rise to an absorption maximum at 310 nm, characteristic of the oxazinone"
same,reaction product with daunorubicin,"[3]; 1:2 molar ratio, oxygen degassed methanol, 25° C.",gives 7-deoxydaunorubicinone 8 as the only reaction product
same,k1 relative to that obtained for bond homolysis of 9,"[3]; methanol, 25° C.",approximately half
same,first order rate constant for bond homolysis of DHM3 (k1),"[3]; methanol, 25.1±0.1° C., with daunorubicin",0.0018 s⁻¹

# Reference: patent publication US4632922A, “Oxomorpholinyl dimer and rescue of anthracycline and mitomycin C damage” (The United States of America as represented by the …, priority 1985, dated 1986)
